Common to all, as to type: biochemical
One experiment addresses T1, PAD1 (Homo sapiens, UniProt Q9ULC6).
T1 construct: made in house
T1 sequence (Q9ULC6 1-663): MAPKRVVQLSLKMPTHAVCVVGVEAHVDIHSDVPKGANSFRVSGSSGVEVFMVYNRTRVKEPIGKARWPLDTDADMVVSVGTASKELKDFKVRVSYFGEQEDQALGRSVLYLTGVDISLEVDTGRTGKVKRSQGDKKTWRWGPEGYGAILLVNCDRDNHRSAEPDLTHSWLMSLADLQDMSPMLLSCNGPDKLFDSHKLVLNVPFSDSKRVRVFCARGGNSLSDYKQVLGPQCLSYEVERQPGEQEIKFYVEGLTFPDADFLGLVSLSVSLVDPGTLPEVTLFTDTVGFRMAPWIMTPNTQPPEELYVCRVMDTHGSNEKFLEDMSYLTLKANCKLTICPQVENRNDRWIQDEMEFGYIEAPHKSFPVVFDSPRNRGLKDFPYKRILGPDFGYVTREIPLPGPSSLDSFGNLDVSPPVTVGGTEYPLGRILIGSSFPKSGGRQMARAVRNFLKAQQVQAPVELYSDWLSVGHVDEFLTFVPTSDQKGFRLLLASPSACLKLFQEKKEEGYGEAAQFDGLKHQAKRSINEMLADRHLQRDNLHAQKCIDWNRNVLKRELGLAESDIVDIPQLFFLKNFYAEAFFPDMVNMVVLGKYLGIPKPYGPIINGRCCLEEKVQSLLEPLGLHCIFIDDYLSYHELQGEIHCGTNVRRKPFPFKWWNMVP
Briefly: Inactivation kinetics of PAD1 (COLDER citrulline assay). The following applies: PAD1. Here is the method:
(§1) Inactivation kinetics. […] After 15 min, reactions were quenched with liquid nitrogen and the production of citrulline was quantified using the COLDER assay. (Kearney, et al. Biochemistry 2005, 44, 10570-10582; Knipp, et al. Anal. Biochem. 2000, 286, 257-264.) The time-dependence of PAD inhibition was fit to the following equation 1, […] (1), using Grafit, version 5.0.11, where v is velocity, ν0 is initial velocity, k (or kobs is the pseudo-first-order rate constant of inactivation, and t is time. Upon reaching saturation, the concentration dependence of kobs was fit to equation 2, kobs=kinact[I]/(KI+[I]), (2), using Grafit, version 5.0.11, where kinact is the maximal rate of inactivation, KI is the concentration of inhibitor that affords half-maximal inactivation, and [I] is the concentration of inhibitor. When kobs with [I] varied linearly, kinact/KI was determined from the slope of the line. All the experiments were performed at least in duplicate.

For another experiment, the target named is T2, PAD2 (Homo sapiens, UniProt Q9Y2J8).
T2 construct: made in house
Briefly: Inactivation kinetics of PAD2 (COLDER citrulline assay). Here is the method:
as §1

The next experiment addresses T3, PAD3 (Homo sapiens, UniProt Q9ULW8).
T3 construct: made in house
T3 sequence (Q9ULW8 1-664): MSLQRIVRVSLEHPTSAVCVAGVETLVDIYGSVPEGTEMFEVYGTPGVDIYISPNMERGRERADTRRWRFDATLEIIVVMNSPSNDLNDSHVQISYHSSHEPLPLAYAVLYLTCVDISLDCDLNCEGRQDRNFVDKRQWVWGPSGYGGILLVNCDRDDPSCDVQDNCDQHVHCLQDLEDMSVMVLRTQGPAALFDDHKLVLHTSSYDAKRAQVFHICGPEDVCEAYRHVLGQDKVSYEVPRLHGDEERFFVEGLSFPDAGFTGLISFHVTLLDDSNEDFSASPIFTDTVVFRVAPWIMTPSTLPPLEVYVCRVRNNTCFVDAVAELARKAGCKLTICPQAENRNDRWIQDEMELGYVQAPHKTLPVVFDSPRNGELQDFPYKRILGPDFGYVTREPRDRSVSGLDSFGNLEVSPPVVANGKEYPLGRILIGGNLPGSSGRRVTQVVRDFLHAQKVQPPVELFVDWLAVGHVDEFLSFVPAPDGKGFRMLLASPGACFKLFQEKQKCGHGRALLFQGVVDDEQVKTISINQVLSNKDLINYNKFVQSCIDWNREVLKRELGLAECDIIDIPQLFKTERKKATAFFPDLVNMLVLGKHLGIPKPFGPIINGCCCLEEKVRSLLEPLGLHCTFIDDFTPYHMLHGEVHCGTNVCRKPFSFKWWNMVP
Briefly: Inactivation kinetics of PAD3 (COLDER citrulline assay). Here is the method: as §1

Another experiment addresses T4, PAD4 (Homo sapiens, UniProt Q9UM07).
T4 construct: made in house
The experiment can be described thus: Inactivation kinetics of PAD4 (COLDER citrulline assay). The method, then:
as §1

Where [1] appears, read: concentration of inhibitor that affords half-maximal inactivation.
Where [2] appears, read: marks: * nonlinear fit of kobs versus [I], ‡ linear fit, † single kobs.
[3] abbreviates: bracketed value under kinact/KI.

This is an account of results in patent publication US12448358B2, “Inhibitors of protein arginine deiminase 1 and methods of preparation and use thereof” (University of Massachusetts, priority 2019, dated 2025).

T4 sequence (Q9UM07 whole entry): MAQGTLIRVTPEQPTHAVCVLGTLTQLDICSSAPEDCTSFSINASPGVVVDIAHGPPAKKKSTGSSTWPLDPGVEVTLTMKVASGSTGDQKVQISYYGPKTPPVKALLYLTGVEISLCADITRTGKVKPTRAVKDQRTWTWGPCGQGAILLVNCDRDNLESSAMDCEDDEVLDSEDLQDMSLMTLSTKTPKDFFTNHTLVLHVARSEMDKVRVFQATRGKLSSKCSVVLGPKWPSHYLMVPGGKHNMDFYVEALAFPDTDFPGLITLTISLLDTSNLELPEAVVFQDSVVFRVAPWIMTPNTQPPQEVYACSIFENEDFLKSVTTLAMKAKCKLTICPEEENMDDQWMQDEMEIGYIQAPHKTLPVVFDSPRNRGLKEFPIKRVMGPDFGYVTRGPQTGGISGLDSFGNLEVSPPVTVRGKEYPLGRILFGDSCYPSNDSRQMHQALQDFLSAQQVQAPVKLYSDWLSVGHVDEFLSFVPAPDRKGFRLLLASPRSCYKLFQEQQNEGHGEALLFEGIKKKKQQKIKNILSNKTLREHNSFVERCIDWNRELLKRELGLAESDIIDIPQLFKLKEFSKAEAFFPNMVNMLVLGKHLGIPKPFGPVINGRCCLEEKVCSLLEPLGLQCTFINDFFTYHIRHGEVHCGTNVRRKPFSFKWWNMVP
T2 sequence (Q9Y2J8 whole entry): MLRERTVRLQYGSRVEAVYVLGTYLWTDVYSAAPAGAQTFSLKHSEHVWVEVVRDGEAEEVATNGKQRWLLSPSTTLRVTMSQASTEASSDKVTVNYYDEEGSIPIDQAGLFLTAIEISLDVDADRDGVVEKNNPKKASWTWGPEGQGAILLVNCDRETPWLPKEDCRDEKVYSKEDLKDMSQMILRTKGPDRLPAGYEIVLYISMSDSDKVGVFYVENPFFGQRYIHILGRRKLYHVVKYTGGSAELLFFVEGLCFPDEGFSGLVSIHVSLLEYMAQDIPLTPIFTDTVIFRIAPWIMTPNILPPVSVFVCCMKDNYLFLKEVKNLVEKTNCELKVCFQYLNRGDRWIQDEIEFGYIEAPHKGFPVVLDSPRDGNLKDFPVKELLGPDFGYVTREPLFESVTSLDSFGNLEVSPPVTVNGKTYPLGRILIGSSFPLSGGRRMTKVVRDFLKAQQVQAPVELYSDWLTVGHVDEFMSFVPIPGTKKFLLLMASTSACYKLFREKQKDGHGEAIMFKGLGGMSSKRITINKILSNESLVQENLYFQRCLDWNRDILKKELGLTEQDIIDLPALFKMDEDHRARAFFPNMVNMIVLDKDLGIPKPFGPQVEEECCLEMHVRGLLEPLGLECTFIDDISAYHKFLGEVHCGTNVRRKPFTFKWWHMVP

Take `C#Cc1c(I)cc(C(=O)N[C@@H](CCCNC(=N)CCl)c2nc3ccccc3[nH]2)c(O)c1I` [Compound 22]: the kinact on PAD1 is 2.54 min⁻¹; at PAD2 it was 0.79 min⁻¹; on PAD3, 0.8 min⁻¹; on PAD4, 0.77 min⁻¹. Moreover, the Ki on PAD1 (setting [1]) amounted to 35.2 µM; at PAD2 (setting [1]), 25.3 µM; at PAD3 (setting [1]) it was 97.6 µM; on PAD4 (setting [1]) it was 30.8 µM. Further, the kinact/KI on PAD1 (setting [2]) was 72160 ± 10970* M^−1min^−1; at PAD2 (setting [2]), 31230 ± 1440* M^−1min^−1; at PAD3 (setting [2]), 8200 ± 30* M^−1min^−1; on PAD4 (setting [2]) it was 25000 ± 1370* M^−1min^−1. In addition, the “Fold PAD selectivity” value on PAD2 (setting [3]) is “[4] fold”; on PAD3 (setting [3]) it was “[1] fold”; at PAD4 (setting [3]), “[3] fold”.
